Data on 63 compounds can be found in a melting point compilation (Tetko et al.; mined from patent text by program, amines drawn as free bases though some values may be those of a salt).

`Cc1cc(-c2ccc(Cl)cc2)nc(-n2cnc(-c3cccc(S(N)(=O)=O)c3)c2)n1`: the melting point stood at 275 °C.

The compound `O=c1oc2c(c(O)c1-c1ccc(F)cc1)CCCC2` returned a melting point of 272 °C.

For the compound `O=C(NCc1ccc(Cl)cc1)c1cnc2c(F)cc(/C=C\CO)cc2c1O`, the melting point was 234 to 235 °C.

`CN(C)C(=O)NC1(Cc2ccccc2)CCN(Cc2ccccc2)CC1` returned a melting point of 131 °C.

`O=C(Nc1cccc2c(=O)cc(-c3nnn[nH]3)oc12)c1ccc2c(c1)CC(COCc1ccccc1)O2` (stereo not drawn): the melting point lay within 200 to 202 °C.

As for `CCCN(c1c2c(nc3ccccc13)CCCC2)n1cc(C)c2ccccc21`, the melting point was 142 to 144 °C.

In turn, `CCn1ncc(C(=O)c2ccc(Cl)cc2Cl)c1O` yielded a melting point of 144 to 146 °C.

`CCCCN(C(=S)NC)c1ccc(Cl)nc1` displayed a melting point of 129 to 130 °C.

Take `CCOC(=O)c1cccn2c(C=O)c(-c3ccccc3)nc12`: the melting point was determined as 139 °C.

`CCOC(=O)C1CCN(c2nnc(NCc3ccc4c(c3)OCO4)c3cnccc23)CC1` displayed a melting point of 119 to 120 °C.

`CN(CCCCCC(=O)O)c1cnc(-c2ccccc2)c(-c2ccccc2)n1` showed a melting point of 159 to 160 °C.

The compound `Cc1c(C)c(O)c([N+](=O)[O-])c(C)c1O` gave a melting point of 105 to 106 °C.

`CC(=O)N(CCc1nc(-c2ccccc2)oc1C)Cc1ccc(C[C@@H](C(=O)O)n2cccc2)cc1` had a melting point of 82 to 87 °C.

As for `COc1ccc2c(c1)C1(CC#N)CCC(=O)C=C1CC2` (stereo not drawn), the melting point fell in the range of 133 to 134 °C.

The compound `O=C(O)[C@@H]1C[C@@H](SC(c2ccccc2)(c2ccccc2)c2ccccc2)CN1S(=O)(=O)c1ccc2ccccc2c1` gave a melting point of 64 to 69 °C.

On to `CNC(=O)SC(C(=O)O)c1ccccc1` (stereo not drawn), for which the melting point lay in the range of 128 to 129 °C.

Compound `CCOC(=O)c1cc(CN2C(=O)C3(COc4cc5c(cc43)OCO5)c3ccccc32)oc1C(F)(F)F` (stereo not drawn) showed a melting point of 162 to 164 °C.

`C=C(Oc1cc(-n2c(=O)cc(C(F)(F)F)n(N)c2=O)c(F)cc1Cl)C(=O)OC` yielded a melting point of 66 °C.

As to `O=C(O)Cc1ccc2c(c1)C(=O)c1ccccc1CO2`, the melting point was 126 to 128 °C.

`Cc1cc2nc(C(C)(C)C(=O)O)cn2nc1OCCCN1CCC(OC(c2ccccc2)c2ccccc2)CC1` gave a melting point of 122 °C.

As for `O=C(CCCCC1CCSS1)NC(Cc1c[nH]cn1)C(=O)O` (stereo not drawn), the melting point is 122 to 126 °C.

Consider `CC1(C)CCC(C)(C)c2cc(-c3cc4ccc(C(=O)O)cc4s3)ccc21`, for which the melting point was 297 °C.

In the case of `COc1ccc(-c2ccc3n[nH]c(=O)n3n2)cc1F`, the melting point lay in the range of 289 to 290 °C.

As for `COC(=O)c1ccc2oc(CCC=O)cc2c1`, the melting point fell in the range of 48 to 49 °C.

Consider `C=CC1CC2=CC(=O)CCC2C2CCC3(C)C(OC(C)=O)CCC3C12` (stereo not drawn), for which the melting point is 130 to 134 °C.

In the case of `CC1CC(=O)NN=C1c1ccc(O)cc1` (stereo not drawn), the melting point was in the range of 268 to 273 °C.

Compound `Cc1ccc(C)n1CCNC(=O)Nc1ccc(Cl)cc1` yielded a melting point of 175 to 177 °C.

`CC1(C)CCC(C)(C)c2cc(-c3cc([N+](=O)[O-])ccc3OS(=O)(=O)C(F)(F)F)ccc21` yielded a melting point of 87 to 89 °C.

In turn, `CC(=O)Nc1ccc2nc(-c3ccccc3)cc(OCC(=O)N3CCOCC3)c2c1` gave a melting point of 261 °C.

Take `COc1ccc(-c2ccc(C=O)cc2)cc1OC1CCCC1`: the melting point fell in the range of 86.5 to 87.5 °C.

In turn, `CC1(C)CCC(C)(C)c2cc(C(=O)COc3ccc(C=O)c(O)c3)ccc21` had a melting point of 111 to 112 °C.

Take `CCCOc1ccccc1-c1nc2ncncc2c(=O)n1N`: the melting point lay in the range of 261 to 262 °C.

As to `O=C1c2ccccc2C(O)N1CCSc1ccncc1` (stereo not drawn), the melting point was found to be 112 °C.

Compound `CC(=Cc1ccc(C(=O)O)cc1)c1ccc2c(c1)OCCC2(C)C` came in with a melting point of 242 to 244 °C.

For the compound `COc1ccc(/C=C/S(=O)(=O)Nc2ccc(S(N)(=O)=O)cc2)cc1`, the melting point lay within 181 to 183 °C.

`C=CCN1CC(C)N(C(c2ccsc2)c2cccc(O)c2)CC1C` (stereo not drawn) came in with a melting point of 140 to 142 °C.

The compound `C#CCOc1cc(C(=O)O)cc(N)c1C(=O)c1ccccc1` displayed a melting point of 192 °C.

For the compound `CC(=O)Nc1nc2c(Nc3ncnc4cc(Cl)ccc34)cccc2s1`, the melting point was determined as 230 °C.

Regarding `CCc1nn(CCN)c(CC)c1Cc1cc(C#N)cc(C#N)c1`, the melting point is 100 to 105 °C.

For the compound `Cn1cncc1-c1cccc(Nc2nccc3ccccc23)c1`, the melting point was 208 to 209 °C.

The compound `Cc1nc(-c2nc(=O)c3ccccc3s2)cs1` had a melting point of 219 to 220 °C.

Compound `NC(=O)c1[nH]c2cccnc2c1Sc1cccc(F)c1` registered a melting point of 235 to 237 °C.

As to `O=C(Nc1c(C(O)(C(F)(F)F)C(F)(F)F)ccc2ccccc12)c1cc2ccccc2s1`, the melting point lay in the range of 132 to 134 °C.

The compound `COc1cccc(Cc2cnc(N)nc2N)c1` showed a melting point of 221 to 223 °C.

With `O=C1c2ccccc2O[C@@H](c2ccccc2)[C@@H]1n1ccnc1` (relative stereo), the melting point was 199 to 203 °C.

`CC(C)C(=O)CC(=O)Nc1ccccc1` came in with a melting point of 46.5 to 58.8 °C.

In the case of `O=C1N(Cc2ccccn2)c2ccccc2C12COc1cc3c(cc12)OCCO3` (stereo not drawn), the melting point lay within 144 to 146 °C.

Compound `CC(=O)c1ccc2c(c1)[C@@H](NC(=O)Nc1ccccc1)[C@H](O)C(C)(C)O2` (relative stereo) returned a melting point of 210 to 211 °C.

`Cc1cc2c(c3c1NC(=O)CC3)OC(CN(C)C(=O)CCCO)C2` (stereo not drawn): the melting point lay within 141 to 143 °C.

In turn, `C=Cc1ccc2nc(-c3ccccc3)c(-c3ccccc3)nc2c1` displayed a melting point of 122 to 123 °C.

For the compound `CC(C)(CS(=O)(=O)c1ccc(Oc2ccc(Cl)cn2)cc1)C(=O)NO`, the melting point is 116 to 117 °C.

Consider `COC(=O)c1ccc(-c2nc(-c3ccc(Cl)cc3)no2)c([N+](=O)[O-])c1`, for which the melting point was in the range of 189 to 190 °C.

`CCCNC(=O)CCn1ccc(=O)c(OCc2ccccc2)c1C` returned a melting point of 146 to 147 °C.

`O=C(c1ccc(F)cc1)c1cccc(C#Cc2cccc(C(=O)c3ccc(F)cc3)c2)c1` registered a melting point of 205 to 206 °C.

As for `O=C(Cc1ccccc1)Nc1ccnc(NC(=O)NCc2ccccn2)c1`, the melting point fell in the range of 219 to 220 °C.

Compound `CCNC(=O)Nc1cn(-c2cccnc2)nc1C` came in with a melting point of 197 to 200 °C.

With `Fc1ccc2nc(-c3ccccc3)cc(OCC3CO3)c2c1` (racemic), the melting point was 118 to 120 °C.

Regarding `O=C(Nc1cccc2c(Cn3cnc4ccccc43)ccnc12)c1c(Cl)cccc1Cl`, the melting point lay within 248 to 253 °C.

For `Cc1nc(C(=O)COc2ccc(CC3SC(=O)NC3=O)cc2)c(C)o1` (stereo not drawn), the melting point fell in the range of 161 to 162 °C.

As to `Cc1c(C(F)(F)C(F)(F)C(F)(F)F)ncn1-c1ncc(C(F)(F)F)cc1Cl`, the melting point amounted to 62.5 °C.

The compound `COc1ccc2c3c(ccc2c1)-c1ccccc1C3c1ccc(OCCN2CCCCC2)cc1` (stereo not drawn) displayed a melting point of 130 to 133 °C.

As to `CC(C)(C)C1=C(C#N)C(c2ccccc2Cl)c2c[nH]nc2N1` (stereo not drawn), the melting point turned out to be 198 °C.

Compound `CN(C)c1ccc(OCC(=O)N[C@@H](CC(N)=O)C(=O)N[C@@H](Cc2ccccc2)[C@H](O)C(=O)N2CCC[C@H]2C(=O)NC(C)(C)C)cc1` registered a melting point of 102 to 104 °C.

Broadly, the melting point is the temperature, or range, at which the solid turns liquid.
